Experimental data published in article doi:10.64898/2025.12.03.692196v2, “Dimerization and Threonine-Dependent Stabilization Govern Human YRDC Catalysis” (biorxiv, 2026).
Changes are numbered by the printed parent chain. Values belong to the molecule of their own block, whether it stands above or below them.

What was measured:
Experiment in all cases: biochemical
Design in all cases: SYPRO Orange DSF; apparent Kd from Tm versus ligand concentration
[1] = molecular target: T1, YRDCS195A (Homo sapiens, UniProt Q86U90, S238A); conditions: With L-threonine; DSF apparent KD
T1 construct: gene YRDC; lacks N-terminal 43 residues; printed numbering S195A is of the truncated protein
T1 sequence (Q86U90 1-279 S238A): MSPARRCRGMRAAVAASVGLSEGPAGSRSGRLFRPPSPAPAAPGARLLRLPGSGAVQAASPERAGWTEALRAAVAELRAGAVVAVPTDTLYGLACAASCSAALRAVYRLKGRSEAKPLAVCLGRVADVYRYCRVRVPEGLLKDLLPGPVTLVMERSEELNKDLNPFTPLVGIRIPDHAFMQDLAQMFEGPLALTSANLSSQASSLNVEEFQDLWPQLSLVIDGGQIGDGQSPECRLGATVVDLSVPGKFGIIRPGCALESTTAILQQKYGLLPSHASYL
Method: (§1) Reactions were prepared in a MicroAmp™ 96-well optical reaction plate (Fisher Scientific) with a final volume of 20 μL per well, in assay buffer (50 mM Tricine pH 8.5, 10 mM MgCl₂) with 8 μM YRDC, and 5X SYPRO Orange dye (Invitrogen). The concentrations of substrates, including ATP, L-threonine, and NaHCO3, were varied based on the reaction type. In most cases wild-type YRDC and its mutants were assessed under various conditions, including enzyme alone, enzyme with ATP concentrations ranging from 10 µM to 500 µM, enzyme with L-threonine concentrations between 0.5 mM and 50 mM, either in the presence or absence of 500 µM ATP, and enzyme with NaHCO3 concentrations from 10 mM to 500 mM in the presence of both 500 µM ATP and 25 mM L-threonine. Fluorescence emission was recorded using Applied Biosystems® QuantStudio 1 Real-Time PCR system (λex = 520 nm, λem = 558 nm). Temperature increases were performed over the range of 25–95 °C, with increments of 1 °C/min, while changes in fluorescence intensity were continuously measured. Each experiment was conducted in triplicate, and the data are presented as the mean ± standard deviation. Control reactions, prepared without the enzyme, were used to account for background fluorescence and were subtracted from experimental measurements. Melting curves were fitted using a Boltzmann sigmoidal model, and thermal stability (Tₘ) values were determined from the inflection point of the curve. The dissociation constant (KD) of the enzyme with each substrate is calculated based on the DSF single binding equation[45]: [drawing 1] Where Tm,0 and Tm,∞refer to the melting temperature (Tm) in °C at zero and infinite ligand concentrations, respectively, P represents the protein concentration and Kd,app is the apparent dissociation constant obtained from ligand-dependent thermal stabilisation.

[2] = molecular target: T2, YRDCWT (human YRDC, ΔN43) (Homo sapiens, UniProt Q86U90, R253K); conditions: With L-threonine; DSF apparent KD
T2 construct: lacks first 43 residues (N-terminal truncation); N-terminal His6 tag removed with TEV; E. coli BL21(DE3); homodimer
T2 sequence (Q86U90 44-279 R253K): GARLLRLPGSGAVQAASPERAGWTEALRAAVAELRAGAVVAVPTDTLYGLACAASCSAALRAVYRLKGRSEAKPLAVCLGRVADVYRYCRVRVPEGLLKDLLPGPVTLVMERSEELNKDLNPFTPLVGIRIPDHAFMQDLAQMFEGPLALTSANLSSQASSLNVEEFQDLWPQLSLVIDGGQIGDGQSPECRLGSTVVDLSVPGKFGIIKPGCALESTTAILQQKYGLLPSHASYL
Method: as §1

[3] = molecular target: T3, YRDCWT (human YRDC, ΔN43) (Homo sapiens, UniProt Q86U90, C121A); conditions: With L-threonine; DSF apparent KD
T3 construct: lacks first 43 residues (N-terminal truncation); N-terminal His6 tag removed with TEV; E. coli BL21(DE3); homodimer
T3 sequence (Q86U90 44-279 C121A): T2 sequence (Q86U90 44-279 R253K) with C78A, K210R
Method: as §1

[4] = molecular target: T4, YRDCWT (human YRDC, ΔN43) (Homo sapiens, UniProt Q86U90); conditions: DSF apparent KD
T4 construct: lacks first 43 residues (N-terminal truncation); N-terminal His6 tag removed with TEV; E. coli BL21(DE3); homodimer
T4 sequence (Q86U90 44-279 C121A): T2 sequence (Q86U90 44-279 R253K) with C78A, K210R
Method: as §1

[5] = molecular target: T5, YRDCWT (human YRDC, ΔN43) (Homo sapiens, UniProt Q86U90); conditions: With ATP; DSF apparent KD
T5 construct: lacks first 43 residues (N-terminal truncation); N-terminal His6 tag removed with TEV; E. coli BL21(DE3); homodimer
T5 sequence (Q86U90 with tags, fused parts or gaps DEL265-265): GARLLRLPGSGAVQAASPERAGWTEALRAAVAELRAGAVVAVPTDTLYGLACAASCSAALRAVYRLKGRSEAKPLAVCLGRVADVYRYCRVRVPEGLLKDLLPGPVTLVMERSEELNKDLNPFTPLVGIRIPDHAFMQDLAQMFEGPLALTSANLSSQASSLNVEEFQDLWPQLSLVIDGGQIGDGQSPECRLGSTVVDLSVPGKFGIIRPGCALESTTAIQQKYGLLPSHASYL
Method: as §1

[6] = molecular target: T6, YRDCWT (human YRDC, ΔN43) (Homo sapiens, UniProt Q86U90, I221T); conditions: DSF apparent KD
T6 construct: lacks first 43 residues (N-terminal truncation); N-terminal His6 tag removed with TEV; E. coli BL21(DE3); homodimer
T6 sequence (Q86U90 44-279 I221T): T2 sequence (Q86U90 44-279 R253K) with I178T, K210R
Method: as §1

[7] = molecular target: T7, (human YRDC, ΔN43) (Homo sapiens, UniProt Q86U90, A84V); conditions: With ATP and L-threonine; DSF apparent KD
T7 construct: lacks first 43 residues (N-terminal truncation); N-terminal His6 tag removed with TEV; E. coli BL21(DE3); homodimer
T7 sequence (Q86U90 44-279 A84V): T2 sequence (Q86U90 44-279 R253K) with A41V, K210R
Method: as §1

Kd [1]: 48.9 ± 37.8 µM
Kd [2]: 148 ± 112 µM
Kd [3]: 133 ± 29.7 µM
Compound: Nc1ncnc2c1ncn2[C@@H]1O[C@H](COP(=O)(O)OP(=O)(O)OP(=O)(O)O)[C@@H](O)[C@H]1O [ATP]

Kd ([4]; With ATP): 1200 ± 300 µM
Kd [5]: 2100 ± 700 µM
Kd ([6]; With ATP): 400 ± 100 µM
Compound: C[C@@H](O)[C@H](N)C(=O)O [L-threonine]

Kd ([4]; With ATP and L-threonine): 3700 ± 2000 µM
Kd ([6]; With ATP and L-threonine): 8300 ± 4200 µM
Kd [7]: 6500 ± 2000 µM
Compound: O=C(O)O [bicarbonate]
